Legend:
Toll-like receptor 8 = target: T1, Toll-like receptor 8 (Homo sapiens, UniProt Q9NR97); experiment: Agonist activity at TLR8 (unknown origin) expressed in HEK-Blue cells; type: cell-based
T1 sequence (Q9NR97 whole entry): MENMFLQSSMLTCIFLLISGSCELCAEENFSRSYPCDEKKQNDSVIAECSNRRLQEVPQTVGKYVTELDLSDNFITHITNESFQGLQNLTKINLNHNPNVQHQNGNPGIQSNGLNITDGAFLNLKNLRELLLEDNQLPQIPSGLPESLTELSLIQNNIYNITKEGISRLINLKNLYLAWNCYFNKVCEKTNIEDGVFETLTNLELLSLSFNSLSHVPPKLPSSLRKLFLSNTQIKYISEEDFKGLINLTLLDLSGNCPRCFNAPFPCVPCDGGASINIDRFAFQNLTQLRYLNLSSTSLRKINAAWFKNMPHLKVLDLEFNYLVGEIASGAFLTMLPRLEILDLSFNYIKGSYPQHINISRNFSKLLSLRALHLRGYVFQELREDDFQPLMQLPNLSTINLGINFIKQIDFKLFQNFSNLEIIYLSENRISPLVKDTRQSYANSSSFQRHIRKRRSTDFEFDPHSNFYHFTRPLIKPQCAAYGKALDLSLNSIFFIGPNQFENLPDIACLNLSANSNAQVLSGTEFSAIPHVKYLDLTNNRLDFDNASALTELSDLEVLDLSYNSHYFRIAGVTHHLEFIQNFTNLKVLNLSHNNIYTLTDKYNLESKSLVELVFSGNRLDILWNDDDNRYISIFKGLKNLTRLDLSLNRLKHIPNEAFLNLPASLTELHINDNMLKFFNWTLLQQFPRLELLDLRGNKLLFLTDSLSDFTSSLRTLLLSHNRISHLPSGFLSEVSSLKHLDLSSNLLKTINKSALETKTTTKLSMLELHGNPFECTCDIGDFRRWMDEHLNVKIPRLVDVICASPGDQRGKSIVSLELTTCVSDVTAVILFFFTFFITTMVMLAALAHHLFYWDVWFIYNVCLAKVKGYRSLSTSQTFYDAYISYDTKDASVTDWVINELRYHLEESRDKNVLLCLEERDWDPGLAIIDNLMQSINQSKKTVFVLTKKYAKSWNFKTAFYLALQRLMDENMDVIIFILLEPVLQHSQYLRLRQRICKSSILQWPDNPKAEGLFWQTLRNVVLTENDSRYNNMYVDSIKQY

Toll-like receptor 7 = target: T2, Toll-like receptor 7 (Homo sapiens, UniProt Q9NYK1); experiment: Agonist activity at TLR7 (unknown origin) expressed in HEK-Blue cells; type: cell-based
T2 sequence (Q9NYK1 whole entry): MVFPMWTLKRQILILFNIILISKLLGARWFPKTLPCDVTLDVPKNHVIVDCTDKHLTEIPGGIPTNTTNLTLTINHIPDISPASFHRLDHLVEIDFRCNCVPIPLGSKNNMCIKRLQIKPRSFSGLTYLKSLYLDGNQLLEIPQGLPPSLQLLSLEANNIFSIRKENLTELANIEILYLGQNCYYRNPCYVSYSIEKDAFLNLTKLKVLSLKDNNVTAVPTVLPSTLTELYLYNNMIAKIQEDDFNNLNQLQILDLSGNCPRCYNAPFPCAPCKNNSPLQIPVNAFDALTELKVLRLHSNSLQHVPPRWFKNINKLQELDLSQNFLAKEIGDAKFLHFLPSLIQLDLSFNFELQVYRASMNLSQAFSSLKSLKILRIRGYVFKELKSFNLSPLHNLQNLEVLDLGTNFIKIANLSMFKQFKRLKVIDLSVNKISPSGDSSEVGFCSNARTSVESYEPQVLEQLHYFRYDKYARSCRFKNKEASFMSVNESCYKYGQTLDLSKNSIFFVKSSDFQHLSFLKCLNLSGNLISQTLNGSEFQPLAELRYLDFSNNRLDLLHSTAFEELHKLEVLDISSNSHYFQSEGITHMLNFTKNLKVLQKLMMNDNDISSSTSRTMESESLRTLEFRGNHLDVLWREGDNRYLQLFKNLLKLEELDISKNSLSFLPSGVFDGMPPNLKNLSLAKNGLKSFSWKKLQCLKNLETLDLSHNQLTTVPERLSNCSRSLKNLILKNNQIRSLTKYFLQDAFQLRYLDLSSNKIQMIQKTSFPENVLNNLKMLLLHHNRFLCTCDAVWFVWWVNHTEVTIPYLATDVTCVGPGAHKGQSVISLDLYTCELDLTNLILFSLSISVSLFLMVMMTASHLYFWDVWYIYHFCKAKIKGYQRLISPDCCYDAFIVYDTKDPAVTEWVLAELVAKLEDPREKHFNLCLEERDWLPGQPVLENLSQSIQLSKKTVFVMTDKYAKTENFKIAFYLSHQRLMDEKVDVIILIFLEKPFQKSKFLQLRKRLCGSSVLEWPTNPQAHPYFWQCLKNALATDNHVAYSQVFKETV

EC50 (Toll-like receptor 8) | EC50 (Toll-like receptor 7) | SMILES
> 100 µM | > 100 µM | CCN(Cc1nc2c(N)nc3cc(-c4cc[nH]n4)ccc3c2n1C)C(=O)OC(C)(C)C
> 100 µM | > 100 µM | CCn1c(CN2CCCC2=O)nc2c(N)nc3cc(-c4cccs4)ccc3c21
> 100 µM | > 100 µM | Nc1nc2cc(-c3cccs3)ccc2c2[nH]c(CN3CCCC3=O)nc12
> 100 µM | > 100 µM | CCN(Cc1nc2c(N)nc3cc(C4=CCCC4)ccc3c2[nH]1)C(C)=O
> 100 µM | > 100 µM | Cc1cccc(-c2ccc3c(c2)nc(N)c2nc(CN4CCCC4=O)[nH]c23)c1
> 100 µM | > 100 µM | CCN(C)Cc1nc2c(N)nc3cc(-c4cc[nH]n4)ccc3c2[nH]1
> 100 µM | > 100 µM | CCC(=O)N(CC)Cc1nc2c(N)nc3cc(-c4ccn[nH]4)ccc3c2n1CC
> 100 µM | > 100 µM | Nc1nc2cc(-n3cccn3)ccc2c2[nH]c(CN3C[C@H](c4ccccc4)CC3=O)nc12
> 100 µM | > 100 µM | Cc1ccc(-c2ccc3c(c2)nc(N)c2nc(CN4CCCC4=O)[nH]c23)cc1
> 100 µM | > 100 µM | CCN(Cc1nc2c(N)nc3cc(-c4ccccc4)ccc3c2[nH]1)C(C)=O
> 100 µM | > 100 µM | Nc1nc2cc(-c3ccccc3F)ccc2c2[nH]c(CN3CCCC3=O)nc12
> 100 µM | > 100 µM | Nc1nc2cc(-c3ccccc3)ccc2c2[nH]c(CN3CCCC3=O)nc12

Reference: ChEMBL document CHEMBL4265998, “NLRP3 Modulators for the Treatment of Autoinflammatory Disorders” (ACS Med Chem Lett, 2018)
